# Source: patent US20100286183A1, “SPIROHYDANTOIN COMPOUNDS AND METHODS FOR THE MODULATION OF CHEMOKINE RECEPTOR ACTIVITY” (priority 2005, published 2010)
# Counter-ions that a name gives are not always drawn.
# Test system: HIV-1Ba-L
# Test: HIV-1 Replication in PM1 Cell Culture Assay
# Assay type: cell-based
# Conditions: Human immunodeficiency virus 1, 144 h; PM1 cell line infected with HIV-1Ba-L, 6 days, reverse transcriptase assay of supernatant; read-out: IC50 μM HIV-1 PM1
# From the text: C:HIV-1 Replication in PM1 Cell Culture Assay
# Evaluation of the in vitro anti-HIV-1Ba-L activity in PM1 cell line: PM1 cell line which is a continuous CD4+ T-cell clone originally derived from a neoplastic T-cell line is used. PM1 is characterized by a unique susceptibility to a wide range of HIV-1 isolates, including primary and biologically pure macrophage-tropic isolates. Drugs are serially diluted (9 concentrations in duplicates) and added to wells of a flat bottom 96-well plate. PM1 cells are infected with HIV-1Ba-L at a multiplicity of infection of 0.5 for a period of 3 hours. Unbound viruses are removed by washing the cells two times through centrifugation followed by seeding the cells into a 96-well plate in the presence of the serially diluted test compounds with final concentrations ranging from 0.00256 to 5000 ηM. Thereafter, plates were incubated for a period of 6 days at 37° C. in a CO2 incubator. Thereafter, culture supernatants are collected at day 6 and stored at −80° C. for viral quantification. The amount of virus present in cell culture supernatants is quantified using a reverse transcriptase assay. The concentration causing 50% inhibition of viral replication (IC50) is calculated using Graph Pad Prism software.
row,IC50 [µM],SMILES
1,< 1,"CC(C)(C)OC(=O)N1C[C@H](CN2CCC3(CC2)NC(=O)N(Cc2ccc(Br)cc2)C3=O)[C@@H](c2ccccc2)C1 [Compound 1, (3S,4S)-3-[3-(4-Bromo-benzyl)-2,4-dioxo-1,3,8-triaza-spiro[4.5]dec-8-ylmethyl]-4-phenyl-pyrrolidine-1-carboxylic acid tert-butyl ester]"
2,< 1,"COc1ccc(CN2C(=O)NC3(CCN(C[C@H]4CN(C(=O)OC(C)(C)C)C[C@@H]4c4ccccc4)CC3)C2=O)cc1 [Compound 2, (3S,4S)-3-[3-(4-Methoxy-benzyl)-2,4-dioxo-1,3,8-triaza-spiro[4.5]dec-8-ylmethyl]-4-phenyl-pyrrolidine-1-carboxylic acid tert-butyl ester]"
3,< 1,"CC(C)(C)OC(=O)N1C[C@H](CN2CCC3(CC2)NC(=O)N(Cc2ccc(S(C)(=O)=O)cc2)C3=O)[C@@H](c2ccccc2)C1 [Compound 3, (3S,4S)-3-[3-(4-Methanesulfonyl-benzyl)-2,4-dioxo-1,3,8-triaza-spiro[4.5]dec-8-ylmethyl]-4-phenyl-pyrrolidine-1-carboxylic acid tert-butyl ester]"

# Same assay, conditions: Human immunodeficiency virus 1, PM1, 144 h, read-out: IC50 μM HIV-1 PM1
row,SMILES,IC50 [µM]
1,"CCC(=O)N1C[C@H](CN2CCC3(CC2)NC(=O)N(Cc2ccc(S(C)(=O)=O)cc2)C3=O)[C@@H](c2ccccc2)C1 [Compound 15, 3-(4-Methanesulfonyl-benzyl)-8-((3S,4S)-4-phenyl-1-propionyl-pyrrolidin-3-ylmethyl)-1,3,8-triaza-spiro[4.5]decane-2,4-dione hydrochloride]",< 1
2,"CC1(C(=O)N2C[C@H](CN3CCC4(CC3)NC(=O)N(Cc3ccc(S(C)(=O)=O)cc3)C4=O)[C@@H](c3ccccc3)C2)CC1 [Compound 16, 3-(4-Methanesulfonyl-benzyl)-8-[(3S,4S)-1-(1-methyl-cyclopropanecarbonyl)-4-phenyl-pyrrolidin-3-ylmethyl]-1,3,8-triaza-spiro[4.5]decane-2,4-dione hydrochloride]",< 1
3,"CS(=O)(=O)c1ccc(CN2C(=O)NC3(CCN(C[C@H]4CN(C(=O)CC5CC5)C[C@@H]4c4ccccc4)CC3)C2=O)cc1 [Compound 17, 8-[(3S,4S)-1-(2-Cyclopropyl-acetyl)-4-phenyl-pyrrolidin-3-ylmethyl]-3-(4-methanesulfonyl-benzyl)-1,3,8-triaza-spiro[4.5]decane-2,4-dione hydrochloride]",< 1
4,"CS(=O)(=O)c1ccc(CN2C(=O)NC3(CCN(C[C@H]4CN(C(=O)C5CCCC5)C[C@@H]4c4ccccc4)CC3)C2=O)cc1 [Compound 18, 8-((3S,4S)-1-Cyclopentanecarbonyl-4-phenyl-pyrrolidin-3-ylmethyl)-3-(4-methanesulfonyl-benzyl)-1,3,8-triaza-spiro[4.5]decane-2,4-dione hydrochloride]",< 1
5,"CS(=O)(=O)c1ccc(CN2C(=O)NC3(CCN(C[C@H]4CN(C(=O)C5CCC(F)(F)CC5)C[C@@H]4c4ccccc4)CC3)C2=O)cc1 [Compound 19, 8-[(3S,4S)-1-(4,4-Difluoro-cyclohexanecarbonyl)-4-phenyl-pyrrolidin-3-ylmethyl]-3-(4-methanesulfonyl-benzyl)-1,3,8-triaza-spiro[4.5]decane-2,4-dione hydrochloride]",< 1
6,"CS(=O)(=O)c1ccc(CN2C(=O)NC3(CCN(C[C@H]4CN(C(=O)c5ccccc5F)C[C@@H]4c4ccccc4)CC3)C2=O)cc1 [Compound 20, 8-[(3S,4S)-1-(2-Fluoro-benzoyl)-4-phenyl-pyrrolidin-3-ylmethyl]-3-(4-methanesulfonyl-benzyl)-1,3,8-triaza-spiro[4.5]decane-2,4-dione hydrochloride]",< 1
7,"CS(=O)(=O)c1ccc(CN2C(=O)NC3(CCN(C[C@H]4CN(C(=O)c5ccccc5Cl)C[C@@H]4c4ccccc4)CC3)C2=O)cc1 [Compound 21, 8-[(3S,4S)-1-(2-Chloro-benzoyl)-4-phenyl-pyrrolidin-3-ylmethyl]-3-(4-methanesulfonyl-benzyl)-1,3,8-triaza-spiro[4.5]decane-2,4-dione hydrochloride]",< 1
8,"CN(C)S(=O)(=O)c1ccc(CN2C(=O)NC3(CCN(C[C@H]4CN(C(=O)C5CCC(F)(F)CC5)C[C@@H]4c4ccccc4)CC3)C2=O)cc1 [Compound 22, 4-{8-[(3S,4S)-1-(4,4-Difluoro-cyclohexanecarbonyl)-4-phenyl-pyrrolidin-3-ylmethyl]-2,4-dioxo-1,3,8-triaza-spiro[4.5]dec-3-ylmethyl}-N,N-dimethyl-benzenesulfonamide hydrochloride]",< 1
9,"CC(C)(C)CC(=O)N1C[C@H](CN2CCC3(CC2)NC(=O)N(Cc2ccc(S(C)(=O)=O)cc2)C3=O)[C@@H](c2ccccc2)C1 [Compound 23, 8-[(3S,4S)-1-(3,3-Dimethyl-butyryl)-4-phenyl-pyrrolidin-3-ylmethyl]-3-(4-methanesulfonyl-benzyl)-1,3,8-triaza-spiro[4.5]decane-2,4-dione hydrochloride]",< 1
10,"CCCN1C(=O)N(CC)C2(CCN(C[C@H]3CN(C(=O)CC(C)(C)C)C[C@@H]3c3ccccc3)CC2)C1=O [Compound 24, 8-[(3S,4S)-1-(3,3-Dimethyl-butyryl)-4-phenyl-pyrrolidin-3-ylmethyl]-1-ethyl-3-propyl-1,3,8-triaza-spiro[4.5]decane-2,4-dione hydrochloride]",< 1
